Experimental data: PubChem BioAssay AID248 (DTP/NCI, 2004)
“And” between values parts separate entries of the source, which are not always exact repeats. Identical values can stand only once. Inconclusive results and toxic doses are left out.

Test system: L1210 leukemia ip in BDF1 mice, survival T/C
Assay: NCI In Vivo Anticancer Drug Screen. Data for tumor model L1210 Leukemia (intraperitoneal) in B6D2F1 (BDF1) mice
Conditions: endpoint: mean survival time, higher = longer survival
How it was run: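 Transplanted-tumor mice were given test agent; controls received vehicle only. Survival readings from the two groups were divided (treated over control).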

[1] = dose: 50.0 mg/kg/injection, schedule: Q01DX001 (ip), vehicle: carboxymethylcellulose (CMC)
[2] = dose: 100.0 mg/kg/injection, schedule: Q01DX001 (ip), vehicle: carboxymethylcellulose (CMC)
[3] = dose: 200.0 mg/kg/injection, schedule: Q01DX001 (ip), vehicle: carboxymethylcellulose (CMC)
[4] = dose: 400.0 mg/kg/injection, schedule: Q01DX001 (ip), vehicle: carboxymethylcellulose (CMC)
[5] = dose: 100.0 mg/kg/injection, schedule: Q04DX003 (ip), vehicle: saline with Tween-80
[6] = dose: 200.0 mg/kg/injection, schedule: Q04DX003 (ip), vehicle: saline with Tween-80

Compound: O=C1C=C2CCCC(=O)C2(Cc2ccccc2)CC1 (configuration not stated)
- T/C (dose: 100.0 mg/kg/injection, schedule: Q01DX009 (ip), vehicle: alcohol): 103 % of control
- T/C (dose: 200.0 mg/kg/injection, schedule: Q01DX009 (ip), vehicle: alcohol): 92 % of control
- T/C (dose: 400.0 mg/kg/injection, schedule: Q01DX009 (ip), vehicle: alcohol): 96 % of control

Compound: O=S(=O)(c1ccc(I)cc1)c1ccc(I)cc1
- T/C [1]: 104 % of control
- T/C [2]: 95 % of control
- T/C [3]: 88 % of control
- T/C [4]: 95 % of control

Compound: CC1(C[N+](=O)[O-])CCCC(=O)C1 (configuration not stated)
- T/C (dose: 75.0 mg/kg/injection, schedule: Q01DX001 (ip), vehicle: saline): 98 % of control

Compound: Nc1nc(N)c(-c2ccc(Cl)c(Cl)c2)c(CCc2ccc(NS(=O)(=O)c3cccc(S(=O)(=O)F)c3)cc2)n1
- T/C (dose: 100.0 mg/kg/injection, schedule: Q01DX001 (ip), vehicle: saline with Tween-80): 98 % of control
- T/C (dose: 200.0 mg/kg/injection, schedule: Q01DX001 (ip), vehicle: saline with Tween-80): 95 % of control
- T/C (dose: 400.0 mg/kg/injection, schedule: Q01DX001 (ip), vehicle: saline with Tween-80): 87 % of control

Compound: CCCOC(=O)C#CC(=O)OCCC
- T/C (dose: 1.56 mg/kg/injection, schedule: Q01DX001 (ip), vehicle: carboxymethylcellulose (CMC)): 101 % of control
- T/C (dose: 1.56 mg/kg/injection, schedule: Q01DX009 (ip), vehicle: carboxymethylcellulose (CMC)): 93 % of control
- T/C (dose: 1.56 mg/kg/injection, schedule: Q04DX002 (ip), vehicle: carboxymethylcellulose (CMC)): 92 % of control and 98 % of control
- T/C (dose: 1.56 mg/kg/injection, schedule: Q04DX003 (ip), vehicle: carboxymethylcellulose (CMC)): 101 % of control
- T/C (dose: 3.13 mg/kg/injection, schedule: Q01DX001 (ip), vehicle: carboxymethylcellulose (CMC)): 94 % of control
- T/C (dose: 3.13 mg/kg/injection, schedule: Q01DX009 (ip), vehicle: carboxymethylcellulose (CMC)): 92 % of control and 86 % of control
- T/C (dose: 3.13 mg/kg/injection, schedule: Q04DX002 (ip), vehicle: carboxymethylcellulose (CMC)): 92 % of control and 98 % of control
- T/C (dose: 3.13 mg/kg/injection, schedule: Q04DX003 (ip), vehicle: carboxymethylcellulose (CMC)): 98 % of control
- T/C (dose: 6.25 mg/kg/injection, schedule: Q01DX001 (ip), vehicle: carboxymethylcellulose (CMC)): 97 % of control
- T/C (dose: 6.25 mg/kg/injection, schedule: Q01DX009 (ip), vehicle: carboxymethylcellulose (CMC)): 93 % of control and 89 % of control
- T/C (dose: 6.25 mg/kg/injection, schedule: Q04DX002 (ip), vehicle: carboxymethylcellulose (CMC)): 103 % of control and 104 % of control
- T/C (dose: 6.25 mg/kg/injection, schedule: Q04DX003 (ip), vehicle: carboxymethylcellulose (CMC)): 106 % of control

Compound: CCOc1c(N2CCOCC2)c(=O)c1=O
- T/C (dose: 100.0 mg/kg/injection, schedule: Q01DX009 (ip), vehicle: saline with Tween-80): 103 % of control
- T/C [5]: 93 % of control
- T/C (dose: 200.0 mg/kg/injection, schedule: Q01DX009 (ip), vehicle: saline with Tween-80): 97 % of control
- T/C [6]: 101 % of control
- T/C (dose: 400.0 mg/kg/injection, schedule: Q01DX009 (ip), vehicle: saline with Tween-80): 91 % of control
- T/C (dose: 400.0 mg/kg/injection, schedule: Q04DX003 (ip), vehicle: saline with Tween-80): 93 % of control

Compound: Fc1c(F)c(F)c(/C=N/Nc2nnc(N/N=C/c3c(F)c(F)c(F)c(F)c3F)c3ccccc23)c(F)c1F
- T/C [1]: 93 % of control
- T/C [2]: 95 % of control
- T/C [3]: 98 % of control
- T/C [4]: 95 % of control

Compound: CC1(C)C2CCC(=O)OC1CC2 (configuration not stated)
- T/C (dose: 5.0 mg/kg/injection, schedule: Q01DX001 (ip), vehicle: saline): 116 % of control
- T/C (dose: 10.0 mg/kg/injection, schedule: Q01DX001 (ip), vehicle: saline): 100 % of control
- T/C (dose: 20.0 mg/kg/injection, schedule: Q01DX001 (ip), vehicle: saline): 86 % of control
- T/C (dose: 40.0 mg/kg/injection, schedule: Q01DX001 (ip), vehicle: saline): 108 % of control

Compound: NC(=O)/C=C/C(=O)O (tested in a mixture with another compound)
- T/C (dose: 31.25 mg/kg/injection, schedule: Q#A X Z (ip), vehicle: saline): 118 % of control
- T/C (dose: 62.5 mg/kg/injection, schedule: Q#A X Z (ip), vehicle: saline): 119 % of control
- T/C (dose: 125.0 mg/kg/injection, schedule: Q#A X Z (ip), vehicle: saline): 100 % of control
- T/C (dose: 125.0 mg/kg/injection, schedule: Q#A X Z (oral), vehicle: saline): 102 % of control
- T/C (dose: 250.0 mg/kg/injection, schedule: Q#A X Z (oral), vehicle: saline): 100 % of control
- T/C (dose: 500.0 mg/kg/injection, schedule: Q#A X Z (oral), vehicle: saline): 102 % of control
- T/C (dose: 1000.0 mg/kg/injection, schedule: Q#A X Z (oral), vehicle: saline): 102 % of control

Compound: CCOC(=O)C(C(C)=O)C(c1cccc(O)c1)C(C(C)=O)C(=O)O (configuration not stated)
- T/C (dose: 25.6 mg/kg/injection, schedule: Q04DX002 (ip), vehicle: saline with Tween-80): 95 % of control
- T/C (dose: 37.5 mg/kg/injection, schedule: Q01DX009 (ip), vehicle: saline with Tween-80): 100 % of control
- T/C (dose: 64.0 mg/kg/injection, schedule: Q04DX002 (ip), vehicle: saline with Tween-80): 91 % of control
- T/C (dose: 75.0 mg/kg/injection, schedule: Q01DX009 (ip), vehicle: saline with Tween-80): 91 % of control
- T/C [5]: 90 % of control
- T/C (dose: 150.0 mg/kg/injection, schedule: Q01DX009 (ip), vehicle: saline with Tween-80): 94 % of control
- T/C (dose: 160.0 mg/kg/injection, schedule: Q04DX002 (ip), vehicle: saline with Tween-80): 87 % of control
- T/C [6]: 90 % of control

Compound: NC(N)=NCC(CCN1CCCCC1)c1cccc2ccccc12 (configuration not stated)
- T/C (dose: 5.0 mg/kg/injection, schedule: Q01DX009 (ip), vehicle: saline): 105 % of control
- T/C (dose: 10.0 mg/kg/injection, schedule: Q01DX009 (ip), vehicle: saline): 100 % of control
- T/C (dose: 12.5 mg/kg/injection, schedule: Q04DX002 (ip), vehicle: saline): 93 % of control
- T/C (dose: 20.0 mg/kg/injection, schedule: Q01DX009 (ip), vehicle: saline): 106 % of control
- T/C (dose: 25.0 mg/kg/injection, schedule: Q04DX002 (ip), vehicle: saline): 93 % of control

Compound: CCC([NH-])=O.CCC([NH-])=O.[Pt+2]
- T/C (dose: 100.0 mg/kg/injection, schedule: Q01DX009 (ip), vehicle: water): 107 % of control
- T/C (dose: 100.0 mg/kg/injection, schedule: Q04DX003 (ip), vehicle: water): 101 % of control
- T/C (dose: 200.0 mg/kg/injection, schedule: Q01DX009 (ip), vehicle: water): 106 % of control
- T/C (dose: 200.0 mg/kg/injection, schedule: Q04DX003 (ip), vehicle: water): 108 % of control
- T/C (dose: 400.0 mg/kg/injection, schedule: Q04DX003 (ip), vehicle: water): 110 % of control

Compound: Cc1c2cnccc2c(C)c2c1c1ccccc1n2C
- T/C (dose: 29.0 mg/kg/injection, schedule: Q01DX Z (ip), vehicle: saline): 109 % of control
- T/C (dose: 44.0 mg/kg/injection, schedule: Q01DX Z (ip), vehicle: saline): 123 % of control
- T/C (dose: 66.0 mg/kg/injection, schedule: Q01DX Z (ip), vehicle: saline): 120 % of control
- T/C (dose: 66.0 mg/kg/injection, schedule: Q01DX Z (oral), vehicle: saline): 112 % of control
- T/C (dose: 100.0 mg/kg/injection, schedule: Q01DX Z (ip), vehicle: saline): 121 % of control
- T/C (dose: 100.0 mg/kg/injection, schedule: Q01DX Z (oral), vehicle: saline): 115 % of control
- T/C (dose: 150.0 mg/kg/injection, schedule: Q01DX Z (oral), vehicle: saline): 155 % of control
- T/C (dose: 225.0 mg/kg/injection, schedule: Q01DX Z (oral), vehicle: saline): 171 % of control

Compound: CCCCCCCCC(=O)N1CC1
- T/C (dose: 50.0 mg/kg/injection, schedule: Q01DX009 (ip), vehicle: Klucel (hydroxypropylcellulose) (HPC)): 94 % of control
- T/C (dose: 50.0 mg/kg/injection, schedule: Q04DX003 (ip), vehicle: Klucel (hydroxypropylcellulose) (HPC)): 105 % of control
- T/C (dose: 100.0 mg/kg/injection, schedule: Q01DX009 (ip), vehicle: Klucel (hydroxypropylcellulose) (HPC)): 94 % of control
- T/C (dose: 100.0 mg/kg/injection, schedule: Q04DX003 (ip), vehicle: Klucel (hydroxypropylcellulose) (HPC)): 96 % of control
- T/C (dose: 200.0 mg/kg/injection, schedule: Q01DX009 (ip), vehicle: Klucel (hydroxypropylcellulose) (HPC)): 96 % of control
- T/C (dose: 200.0 mg/kg/injection, schedule: Q04DX003 (ip), vehicle: Klucel (hydroxypropylcellulose) (HPC)): 98 % of control

Compound: NC(N)=Nc1ccc(NC(=O)c2ccc(C(=O)Nc3ccc(N=C(N)N)cc3)cc2)cc1
- T/C (dose: 1.8 mg/kg/injection, schedule: Q01DX Z (ip), vehicle: carboxymethylcellulose (CMC)): 122 % of control
- T/C (dose: 3.7 mg/kg/injection, schedule: Q01DX Z (ip), vehicle: carboxymethylcellulose (CMC)): 104 % of control
- T/C (dose: 7.5 mg/kg/injection, schedule: Q01DX Z (ip), vehicle: carboxymethylcellulose (CMC)): 88 % of control

Compound: CCN(CC)c1nc2ccccc2o1
- T/C [2]: 102 % of control
- T/C [3]: 91 % of control
- T/C [4]: 91 % of control
